Legend:
[1] = test system: Salmonella entiritidis (ATCC 13076); assay: Bioscreen growth rate in brain heart infusion broth (synergy study); type: cell-based
Protocol: (§1) The following cultures were used in a study: Escherichia coli (ATCC 8739), Escherichia coli serotype O157:H7 (ATCC 700728), Salmonella typhimurium (ATCC 13311) and Salmonella entiritidis (ATCC 13076). All cultures were transferred daily in screw-capped tubes containing 10 ml brain heart infusion broth. Cultures were incubated at 30° C. without agitation. Brain heart infusion broth was prepared with increasing amounts of the mono/di glyceride and polylysine. The concentration range for the caprylic (C8) mono/di glyceride was as from 0 to 0.18% in 10 0.02% steps, for the capric (C10) mono/di glyceride was as from 0 to 0.09% in 10 0.01% steps, for the lauric (C12)mono/di glyceride was as from 0 to 0.009% in 10 0.001% steps. Mono/di glycerides were combined with polylysine. The concentration range for the polylysine was as from 0 to 0.0675% in 10 0.0075% steps, resulting in 100 different media. The pH of the media was adjusted to 6.1-6.2 with 1 N HCl or 1 N NaOH. Media were prepared in 10 ml quantities and sterilized by filtration. 300 μl of each medium was transferred to a panel of a sterile Bioscreen® honeycomb 100 well plate. Well plates were inoculated with 5 μl of a culture that was grown overnight in brain heart infusion broth using a sterile 5 μl repeating dispenser. Growth rates were determined with a Bioscreen® that kinetically measures the development of turbidity by vertical photometry. The plates were incubated for 16-24 hours at 37° C., the optical density of the cultures was measured every 30 minutes at 420-580 nm using a wide band filter. The Bioscreen® measures at set time intervals the optical density of the cultures. […] The purpose of further data processing is to ascertain whether two […] act independently of each other or whether they stimulate each other in their inhibitory action (synergy) or cancel out each other inhibitory effect (antagonism). […] This implies that only the maximum specific growth rate (μmax) value and not the affinity (Ks) is affected. Therefore the specific growth rate in the presence of inhibitor can be written as: μ=μi.s/(Ks+s), where μi is the maximal specific growth rate in the presence of a inhibitor P. The relationship between μi and μmax and the concentration of the inhibitor P was describes using the Logistic Dose Response equation, which reads: μi/μmax=1/(1+(p/P0.5)^b) (Jungbauer, A. (2001). The logistic dose response function: a robust fitting function for transition phenomena in life sciences. J. Clinical Ligand Assay 24: 270-274). In this equation p represents the concentration of inhibitor P and p0.5 the concentration of P where p=0.5 μmax; μmax is the maximum specific growth rate that is the specific growth rate in the absence of inhibitor P, b is a dimensionless quantity, which determines the relationship between μi and p. Combining the Monod and Logistic Dose Response equation it can be written as: μ=μmax (s/Ks+s)/(1+(p/p0.5)^b). In batch culture where s is usually many times higher than Ks this equation reduces to μ=μmax/(1+(p/p0.5)^b). When comparing different organisms grown under the same conditions, or the same organism grown under different conditions, it is more meaningful to use relative growth rate, rather than absolute growth rates as standards of comparison. Relative growth rate (O) is the ratio of growth rate (μ) to maximum growth rate (μmax) i.e. O=μ/μmax. It can be seen that while μ and μmax have the dimensions of (time)^−1, their ratio O is dimensionless, i.e. a pure number. Similarly we can define the relative inhibitor concentration ε as p/p0.5. The reduced Monod and Logistic Dose Response equation can now be written as: O=1/(1+ε^b).

[2] = test system: Escherichia coli serotype O157:H7 (ATCC 700728); assay: as above; type: cell-based
Protocol: as §1

[3] = test system: Salmonella typhimurium (ATCC 13311); assay: as above; type: cell-based
Protocol: as §1

[4] = test system: Salmonella Typhimurium ATCC 13311; assay: Decontamination of inoculated chicken filets, surviving counts; type: cell-based
Protocol: Salmonella Typhimurium ATCC 13311 and Escherichia coli O157:H7 ATCC 700728 were grown in sterile screw capped tubes containing Brain heart infusion broth for 18-24 hours at 30° C.
Chicken filets (150-200 g) were trimmed, vacuum packaged and stored at 4-7° C. Filets were subsequently sterilized by gamma-irradiation (average radiation dose: 12 kiloGray).
1 ml of an overnight culture of Salmonella Typhimurium in brain heart infusion both was diluted 1000 times with sterile 0.8% (w/v) NaCl and 0.1% (w/v) peptone. 0.5 ml of this diluted culture was transferred to one side of the filet. The inoculum was distributed by gently rubbing the entire surface of the filet. This was repeated for the other side of the filet. Inoculation was carried out at 6° C. Inoculated filets were rested for 60-120 min at 6° C. to allow attachment of the cells.
Chicken filets were briefly dipped and completely submersed in 1 l of a solution containing the appropriate formulation and then transferred to 400 ml Bagfilter® lateral filter bags (Interscience, St Nom, France) containing 5 ml of the appropriate formulation. Bags were vacuum-sealed and incubated at 12° C. for up to 7 days until further analysis. Time zero samples were plated within 30 min after dipping.
Surviving Salmonella Typhimurium on chicken filets were counted as follows: a sealed bag was opened and to this was added 2 times the net weight sterile dilution fluid ([…] NaCl and 0.1% (w/v) bacteriological peptone). Duplicate filets were homogenized for 1 min. in a Bagmixer® 400 paddle labblender (Interscience, St Nom, France). 50 μl of the homogenates or dilutions thereof were plated on duplicate Salmonella chromogenic agar plates (CM1007) with cefsulodin, novobiocin supplement (SR0194) (Oxoid, Basingstoke, United Kingdom) using an Eddyjet type 1.23 spiral plater (IUL Instruments, Barcelona, Spain). Plates were incubated for 24-48 hours at 30° C. and then counted. Salmonella numbers were expressed as log10 colony forming units per ml homogenate.
The compositions of the formulations that were studied are shown in Table 2. ε-Polylysine and mono/di glycerides were dissolved in demineralised water and sterilized for 20 min at 120° C.

[5] = test system: Escherichia coli (ATCC 8739); assay: Bioscreen growth rate in brain heart infusion broth (synergy study); type: cell-based
Protocol: as §1

[6] = test system: gram-positive and -negative bacteria; details: Shima et al. (November 1984); cited from earlier work
[7] = 0.090% (w/w) C10-glycerol ester alone
[8] = 0.120% (w/w) C8-glycerol ester alone
[9] = 0.0225% (w/w) polylysine alone, C8 part of Table 1
[10] = 0.0225% (w/w) polylysine alone, C10 part of Table 1

Substance: glyceryl mono/di decanoate [C10-glycerol ester]
- Observed Relative Growth Rate [1, 7]: 0.8960
- Observed Relative Growth Rate [2, 7]: 0.8685
- Observed Relative Growth Rate [3, 7]: 0.4613
- Salmonella Typhimurium on chicken filets ([4]; 0.05% (w/v) alone, 12° C., 0 days): 3.72 log10 colony forming units (CFU)/ml
- Salmonella Typhimurium on chicken filets ([4]; 0.05% (w/v) alone, 12° C., 1 day): 3.98 log10 colony forming units (CFU)/ml
- Salmonella Typhimurium on chicken filets ([4]; 0.05% (w/v) alone, 12° C., 2 days): 4.32 log10 colony forming units (CFU)/ml
- Salmonella Typhimurium on chicken filets ([4]; 0.05% (w/v) alone, 12° C., 5 days): 6.0 log10 colony forming units (CFU)/ml
- Salmonella Typhimurium on chicken filets ([4]; 0.05% (w/v) alone, 12° C., 6 days): 7.62 log10 colony forming units (CFU)/ml
- Salmonella Typhimurium on chicken filets ([4]; 0.05% (w/v) alone, 12° C., 7 days): 7.85 log10 colony forming units (CFU)/ml

Substance: glyceryl mono/di octanoate [C8-glycerol ester]
- Observed Relative Growth Rate [1, 8]: 0.5220
- Observed Relative Growth Rate [2, 8]: 0.9410
- Observed Relative Growth Rate ([5]; 0.120% (w/w) C8-glycerol ester alone, broth pH 6.1-6.2, 37° C.): 1.0845
- Observed Relative Growth Rate [3, 8]: 0.4035
- Salmonella Typhimurium on chicken filets ([4]; 0.2% (w/v) alone, 12° C., 0 days): 3.82 log10 colony forming units (CFU)/ml
- Salmonella Typhimurium on chicken filets ([4]; 0.2% (w/v) alone, 12° C., 1 day): 3.81 log10 colony forming units (CFU)/ml
- Salmonella Typhimurium on chicken filets ([4]; 0.2% (w/v) alone, 12° C., 2 days): 4.03 log10 colony forming units (CFU)/ml
- Salmonella Typhimurium on chicken filets ([4]; 0.2% (w/v) alone, 12° C., 5 days): 6.41 log10 colony forming units (CFU)/ml
- Salmonella Typhimurium on chicken filets ([4]; 0.2% (w/v) alone, 12° C., 6 days): 7.48 log10 colony forming units (CFU)/ml
- Salmonella Typhimurium on chicken filets ([4]; 0.2% (w/v) alone, 12° C., 7 days): 7.39 log10 colony forming units (CFU)/ml

Substance: ε-Polylysine
- Observed Relative Growth Rate [1, 9]: 0.9945
- Observed Relative Growth Rate [1, 10]: 0.9600
- Observed Relative Growth Rate [2, 9]: 0.8315
- Observed Relative Growth Rate [2, 10]: 0.5850
- Observed Relative Growth Rate [5, 9]: 0.7570
- Observed Relative Growth Rate [3, 9]: 0.9653
- Observed Relative Growth Rate [3, 10]: 0.9910
- concentrations effectively used against bacteria [6]: 1˜8 microgram per ml
- Salmonella Typhimurium on chicken filets ([4]; 0.1% (w/v) alone, 12° C., 0 days): 3.04 log10 colony forming units (CFU)/ml
- Salmonella Typhimurium on chicken filets ([4]; 0.1% (w/v) alone, 12° C., 1 day): 2.04 log10 colony forming units (CFU)/ml
- Salmonella Typhimurium on chicken filets ([4]; 0.1% (w/v) alone, 12° C., 2 days): 2.15 log10 colony forming units (CFU)/ml
- Salmonella Typhimurium on chicken filets ([4]; 0.1% (w/v) alone, 12° C., 5 days): 4.04 log10 colony forming units (CFU)/ml
- Salmonella Typhimurium on chicken filets ([4]; 0.1% (w/v) alone, 12° C., 6 days): 4.26 log10 colony forming units (CFU)/ml
- Salmonella Typhimurium on chicken filets ([4]; 0.1% (w/v) alone, 12° C., 7 days): 5.35 log10 colony forming units (CFU)/ml
- killing or growth suppressing effect (in words) ([4]; individual components on chicken filets, 12° C.): reduced the cell numbers
- reduction in numbers ([4]; single addition, after one day of incubation): 2 log10
